# In patent EP1501797B1, “3-(SUBSTITUTED AMINO)-1H-INDOLE-2-CARBOXYLIC ACID ESTER AND 3-(SUBSTITUTED AMINO)-BENZO[B]THIOPHENE-2-CARBOXYLIC ACID ESTER DERIVATIVES AS INTERLEUKIN-4 GENE EXPRESSION INHIBITORS” (Aventis Pharmaceuticals Inc., priority 2002, dated 2003):
# Experiments:
# IL-13 = experiment: In vivo ovalbumin (OVA) mouse model, BALF IL-13; parameters: species or system mice; conditions: for IL-13 pg/ml (± SEM): 30 minutes before OVA challenge, BALF 24 hours, vehicle 120.2 ± 19.8
# Experimental: This model is designed to determine the ability of a test article to modulate an antigen-induced pulmonary inflammatory cell accumulation in sensitized Balb/c mice from Charles River Laboratories. The mice are given a two week time period from arrival date prior to sensitizations.
# On days 0, 7, 14, each animal is injected intraperitoneal (i.p.) with a 0.2 ml Ovalbumin Hydragel solution. Each animal receives 10 µg of Ovalbumin in 0.2 mL of Hydragel, aluminum hydroxide adsorptive gel containing 2% aluminum oxide. […] On day 22, BALF samples are collected from one group of animals and used for cytokine analysis. On day 24, BALF is obtained from a second group of animals and used for differential cell counts.
# Test System: Female Babl/cJ mice (Jackson Laboratories), approximately 6-9 weeks old, each weighing approximately 20 to 25 grams, are divided into ten animals per group.
# Sensitization Regimen: Mice are sensitized by an intraperitoneal injection of 10 µg ovalbumin (OVA) mixed in 4 mg aluminum hydroxide Al(OH)3 gel suspension in 0.2 ml sterile saline on Days 0, 7 and 14. This suspension is prepared one hour before intraperitoneal injection into each mouse. The animals are ready for OVA challenge on Day 21.
# Antigen Challenge: Animals are exposed to aerosolized OVA on day 21 (5% w/v in sterile saline) for 20 minutes. The aerosol is generated by a PARI-Master nebulizer, the outlet of which is connected to a small Plexiglas® chamber containing the animals. Bronchoalveolar lavage is performed on Day 22.
# Method of Study Performance: On day 24, 72 hours following aerosol OVA exposure, a separate group of animals are anesthetized with urethane (0.15 - 0.2 gm/kg) and the trachea is exposed and cannulated. […] Total cells and eosinophils are determined using a Technicon Hl and cytoslides, respectively. […]
# Mice (12 animals per group) are sensitized with 0.2 ml of an AlOH3 hydrogel suspension (2% AlOH3) containing 50 µg/ml ovalbumin on days 0, 7 and 14. […] After the OVA challenge for 24 hours, the mice underwent bronchoalveolar lavage and IL-4 and IL-13 levels in the BALF are determined by ELISA. […]
# IFN-γ = experiment: Human primary Th1 (NYTh1) cells, IFN-γ ELISA; type: cell-based; conditions: data from 8 different experiments combined
# Experimental: Briefly, CD4^+CD45RA^+ T cells, isolated from donor peripheral blood mononuclear cells of healthy donors, are educated in the presence of anti-CD3/CD28 antibodies and various growth factors to obtain either a Thl-like or Th2-like phenotypes as determined by the known cytokine profiles of these two cell types.
# Generation of Th1/Th2 cells: Twenty four well plates are coated with 300 µL anti-CD3 Ab (10 µg/ml, in PBS 1-2 h at 37°C or overnight at 4°C), and washed two times with PBS. CD4^+/CD45RA^+ cells at a density of 10^6/ml in RPMI, is prepared and added to RPMI medium containing 10% Hyclone serum/ glutamine and 1-2 µg/ml anti-CD28 Ab. The cells are split in two aliquots. […] The degree of polarization is determined by intracellular staining of cells with anti-IFN-γ and anti-IL-4 antibodies from Pharmingen, and using flow cytometry from Becton Dickinson (BD), according to manufacturers description. […] For compound testing, large quantities of Th1 and Th2 cells derived from a given donor (NYTh1 and NYTh2) were expanded and frozen as aliquots in liquid nitrogen. […]
# Re-stimulation by allogeneic cells: Human PBMCs, to be used as alloantigens, are isolated from freshly drawn blood by Ficoll separation. […] Cells are counted and diluted to a final concentration of 2 x 10^6/ml in medium containing 10 µg/ml PHA and 200 units/ml IL-2. […]
smiles,measurement,setting,value
"O=C(O)c1[nH]c2ccccc2c1Nc1ccncc1 [Example 28, 3-(4-Pyridinylamino)-1H-indole-2-carboxylic acid]",IL-13 pg/ml (± SEM),IL-13; 10 mg/kg intranasal,59.9 ± 12.7 pg/mL
same,IL-13 pg/ml (± SEM),IL-13; 30 mg/kg intranasal,15.1 ± 7.1 pg/mL
same,ED50,"IL-13; Mus musculus, mice, intranasally, FIG. 1, read-out: ED50, allergen-induced IL-13 levels in the BALF",~10 mg/kg
same,IC50,IFN-γ,> 10 µM
